In ChEMBL document CHEMBL6127087 (Eur J Med Chem, 2024):
The source made the active and inactive calls. The calls are words filed in the database; no cut-off is given here.

Columns and labels:
[1] = target: P2Y purinoceptor 6 (Homo sapiens, UniProt Q15077); test: Antagonist activity at human P2Y6R expressed in CHO cells assessed as inhibition of UDP sodium salt-induced Ca2+ level by FLIPR calcium 6 assay; assay type: functional, cell-based
[2] = test system: Mus musculus; test: (§1) Anti-inflammatory activity in LPS-induced male C57BL/6 mouse model of acute […] injury assessed as reduction in IL-1beta level in BALF at 2 mg/kg, IG preadministered with compound for 7 days followed by LPS administration and measured after 24 hrs by ELISA; assay type: functional, organism-based; settings: time 8.0 day
[3] = test system: Mus musculus; test: as §1, with “absence of lesion” for “reduction”, “lung parenchyma” for “IL-1beta level in BALF”, “H and E staining based histopathological analysis” for “ELISA”; assay type: functional, organism-based; settings: time 8.0 day
[4] = test system: Mus musculus; test: Anti-inflammatory activity in LPS-induced male C57BL/6 mouse model of acute […] injury assessed as reduction in TNF-alpha level in BALF at 2 mg/kg, IG preadministered with compound for 7 days followed by LPS administration and measured after 24 hrs by ELISA; assay type: functional, organism-based; settings: time 8.0 day
[5] = test system: Mus musculus; test: Anti-inflammatory activity in LPS-induced male C57BL/6 mouse model of acute […] injury assessed as reduction in infiltration of immune cells by measuring decrease in monocytes count at 2 mg/kg, IG preadministered with compound for 7 days followed by LPS administration and measured after 24 hrs; assay type: functional, organism-based; settings: time 8.0 day
[6] = test system: Mus musculus; test: as §1, with “intact appearance of alveolar structure” for “reduction”, “lung” for “IL-1beta level in BALF”, “H and E staining based histopathological analysis” for “ELISA”; assay type: functional, organism-based; settings: time 8.0 day
[7] = test system: Mus musculus; test: Anti-inflammatory activity in LPS-induced male C57BL/6 mouse model of acute […] injury assessed as reduction in infiltration of immune cells by measuring decrease in lymphocytes count at 2 mg/kg, IG preadministered with compound for 7 days followed by LPS administration and measured after 24 hrs; assay type: functional, organism-based; settings: time 8.0 day
[8] = test system: Mus musculus; test: as §1, with “inflammatory infiltration” for “IL-1beta level”, “lung” for “BALF”, “H and E staining based histopathological analysis” for “ELISA”; assay type: functional, organism-based; settings: time 8.0 day
[9] = test system: Mus musculus; test: Anti-inflammatory activity in LPS-induced male C57BL/6 mouse model of acute […] injury assessed as reduction in infiltration of immune cells by measuring decrease in WBC count at 2 mg/kg, IG preadministered with compound for 7 days followed by LPS administration and measured after 24 hrs; assay type: functional, organism-based; settings: time 8.0 day
[10] = test system: Mus musculus; test: as §1, with “interstitial edema” for “IL-1beta level”, “lung” for “BALF”, “H and E staining based histopathological analysis” for “ELISA”; assay type: functional, organism-based; settings: time 8.0 day
[11] = test system: Mus musculus; test: as §1, with “alveolar septa thickening” for “IL-1beta level”, “lung” for “BALF”, “H and E staining based histopathological analysis” for “ELISA”; assay type: functional, organism-based; settings: time 8.0 day
[12] = test system: Mus musculus; test: as §1, with “tissue destruction” for “IL-1beta level”, “lung” for “BALF”, “H and E staining based histopathological analysis” for “ELISA”; assay type: functional, organism-based; settings: time 8.0 day
[13] = test system: Mus musculus; test: Anti-inflammatory activity in LPS-induced male C57BL/6 mouse model of acute […] injury assessed as reduction in infiltration of immune cells by measuring decrease in neutrophil count at 2 mg/kg, IG preadministered with compound for 7 days followed by LPS administration and measured after 24 hrs; assay type: functional, organism-based; settings: time 8.0 day
[14] = test system: Mus musculus; test: as §1, with “hyperemia of pulmonary alveolar septa” for “IL-1beta level”, “lung” for “BALF”, “H and E staining based histopathological analysis” for “ELISA”; assay type: functional, organism-based; settings: time 8.0 day
[15] = test system: Mus musculus; test: Anti-inflammatory activity in LPS-induced male C57BL/6 mouse model of acute […] injury assessed as reduction in IL-6 level in BALF at 2 mg/kg, IG preadministered with compound for 7 days followed by LPS administration and measured after 24 hrs by ELISA; assay type: functional, organism-based; settings: time 8.0 day
[16] = Cmax in male Sprague-Dawley rat at 20 mg/kg, po measured after 24 hrs by LC-MS/MS analysis; assay type: ADME, organism-based; settings: in vivo, po, 20 mg/kg, 24 h
[17] = Oral bioavailability in male Sprague-Dawley rat at 20 mg/kg measured after 24 hrs by LC-MS/MS analysis; assay type: ADME, organism-based; settings: in vivo, po, 20 mg/kg, 24 h
[18] = Cmax in male Sprague-Dawley rat at 10 mg/kg, iv measured after 24 hrs by LC-MS/MS analysis; assay type: ADME, organism-based; settings: in vivo, iv, 10 mg/kg, 24 h
[19] = Clearance in male Sprague-Dawley rat at 10 mg/kg, iv measured after 24 hrs by LC-MS/MS analysis; assay type: ADME, organism-based; settings: in vivo
[20] = Half-life in male Sprague-Dawley rat at 20 mg/kg, po measured after 24 hrs by LC-MS/MS analysis; assay type: ADME, organism-based; settings: in vivo, po, 20 mg/kg, 24 h
[21] = Half-life in male Sprague-Dawley rat at 10 mg/kg, iv measured after 24 hrs by LC-MS/MS analysis; assay type: ADME, organism-based; settings: in vivo, iv, 10 mg/kg, 24 h
[22] = Clearance in male Sprague-Dawley rat at 20 mg/kg, po measured after 24 hrs by LC-MS/MS analysis; assay type: ADME, organism-based; settings: in vivo
[23] = Tmax in male Sprague-Dawley rat at 10 mg/kg, iv measured after 24 hrs by LC-MS/MS analysis; assay type: ADME, organism-based; settings: in vivo, iv, 10 mg/kg, 24 h
[24] = AUC (0 to 24 hrs) in male Sprague-Dawley rat at 20 mg/kg, po measured after 24 hrs by LC-MS/MS analysis; assay type: ADME, organism-based; settings: in vivo, po, 20 mg/kg, 24 h
[25] = AUC (0 to 24 hrs) in male Sprague-Dawley rat at 10 mg/kg, iv measured after 24 hrs by LC-MS/MS analysis; assay type: ADME, organism-based; settings: in vivo
[26] = Tmax in male Sprague-Dawley rat at 20 mg/kg, po measured after 24 hrs by LC-MS/MS analysis; assay type: ADME, organism-based; settings: in vivo, po, 20 mg/kg, 24 h
[27] = target: P2Y purinoceptor 4 (Homo sapiens, UniProt P51582); test: Antagonist activity at human P2Y4R stably expressed in HEK293 cells assessed as inhibition of UTP-induced IP3 accumulation preincubated with compound for 30 mins followed by UTP addition by ELISA
[28] = target: P2Y purinoceptor 12 (Homo sapiens, UniProt Q9H244); test: Antagonist activity at human P2Y12R stably expressed in HEK293 cells assessed as inhibition of MeSADP-induced cAMP accumulation preincubated with compound for 30 mins followed by MeSADP addition by cAMP-GloTM assay; assay type: functional, cell-based
Chain of P2Y purinoceptor 12 (Q9H244 whole entry): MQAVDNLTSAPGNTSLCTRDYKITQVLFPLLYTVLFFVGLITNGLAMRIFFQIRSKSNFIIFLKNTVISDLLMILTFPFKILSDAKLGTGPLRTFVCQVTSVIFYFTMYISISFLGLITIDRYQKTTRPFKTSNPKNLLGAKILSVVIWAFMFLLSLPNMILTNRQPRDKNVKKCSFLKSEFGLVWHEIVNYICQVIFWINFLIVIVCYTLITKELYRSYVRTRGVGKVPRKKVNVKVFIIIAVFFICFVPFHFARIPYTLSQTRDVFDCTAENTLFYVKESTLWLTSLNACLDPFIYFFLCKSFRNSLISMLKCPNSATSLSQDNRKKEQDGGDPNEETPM

Chain of P2Y purinoceptor 6 (Q15077 whole entry): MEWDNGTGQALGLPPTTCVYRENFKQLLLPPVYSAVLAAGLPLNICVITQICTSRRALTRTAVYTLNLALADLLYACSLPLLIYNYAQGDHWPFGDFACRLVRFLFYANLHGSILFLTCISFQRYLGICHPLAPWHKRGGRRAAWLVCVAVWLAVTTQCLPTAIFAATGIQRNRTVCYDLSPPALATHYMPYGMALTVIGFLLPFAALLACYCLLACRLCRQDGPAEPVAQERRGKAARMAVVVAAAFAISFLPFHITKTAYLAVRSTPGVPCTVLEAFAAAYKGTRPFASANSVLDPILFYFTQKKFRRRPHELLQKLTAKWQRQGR
Chain of P2Y purinoceptor 4 (P51582 whole entry): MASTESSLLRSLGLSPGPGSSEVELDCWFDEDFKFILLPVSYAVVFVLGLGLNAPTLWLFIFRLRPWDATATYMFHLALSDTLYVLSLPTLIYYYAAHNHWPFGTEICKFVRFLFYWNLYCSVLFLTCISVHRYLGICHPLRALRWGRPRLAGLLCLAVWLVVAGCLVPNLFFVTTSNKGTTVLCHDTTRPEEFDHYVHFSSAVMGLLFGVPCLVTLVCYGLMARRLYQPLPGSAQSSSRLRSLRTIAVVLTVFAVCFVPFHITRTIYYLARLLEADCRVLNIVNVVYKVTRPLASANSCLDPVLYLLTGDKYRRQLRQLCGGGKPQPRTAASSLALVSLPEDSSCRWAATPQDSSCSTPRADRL

Row | SMILES | IC50 [1] [nM] | also measured
1 | O=C(O)CCC(=O)N1N=C(c2ccc[nH]2)CC1c1cc2ccc(F)cc2nc1Cl (stereo unspecified) | 421 | 
2 | C[C@@H]1C[C@H]2[C@@H]3CCC4=CC(=O)C=C[C@]4(C)[C@@]3(F)[C@@H](O)C[C@]2(C)[C@@]1(O)C(=O)CO |  | Activity [2]: Active; Activity [3]: Active; Activity [4]: Active; Activity [5]: Active; Activity [6]: Active; Activity [7]: Active; Activity [8]: Active; Activity [9]: Active; Activity [10]: Active; Activity [11]: Active; Activity [12]: Active; Activity [13]: Active; Activity [14]: Active; Activity [15]: Active
3 | Cc1ccc2cc(C3CC(c4cccnc4)=NN3C(=O)CCC(=O)O)c(Cl)nc2c1 (stereo unspecified) | 279 | 
4 | Cc1ccc2cc(C3CC(c4ccco4)=NN3C(=O)C=CC(=O)O)c(Cl)nc2c1 (stereo unspecified) | 291 | 
5 | O=C(O)CCC(=O)N1N=C(c2ccc[nH]2)CC1c1cc2ccccc2nc1Cl (stereo unspecified) | 249 | 
6 | Cc1ccc2cc(C3CC(c4cccc(C(F)(F)F)c4)=NN3C(=O)CCC(=O)O)c(Cl)nc2c1 (stereo unspecified) | > 500 | 
7 | O=C(O)CCC(=O)N1N=C(c2ccccc2)CC1c1cc2ccc(F)cc2nc1Cl (stereo unspecified) | 187 | 
8 | Cc1ccc2cc(C3CC(c4ccco4)=NN3C(=O)CCCC(=O)O)c(Cl)nc2c1 (stereo unspecified) | > 500 | 
9 | O=C(O)CCCC(=O)N1N=C(c2ccc[nH]2)CC1c1cnc2ccccc2c1 (stereo unspecified) | 200 | 
10 | O=C(O)CCC(=O)N1N=C(c2ccccc2)CC1c1cc2ccccc2nc1Cl (stereo unspecified) | 274 | 
11 | O=C(O)CCC(=O)N1N=C(c2ccco2)CC1c1cc2ccc(F)cc2nc1Cl (stereo unspecified) | 210 | 
12 | Cc1ccc2cc(C3CC(c4cccs4)=NN3C(=O)CCC(=O)O)c(Cl)nc2c1 (stereo unspecified) | 324 | 
13 | Cc1ccc2cc(C3CC(c4ccccc4F)=NN3C(=O)CCC(=O)O)c(Cl)nc2c1 (stereo unspecified) | > 500 | 
14 | O=C(O)CCC(=O)N1N=C(c2ccco2)CC1c1cc2ccccc2nc1Cl (stereo unspecified) | 186 | 
15 | O=C(O)/C=C\C(=O)N1N=C(c2ccc[nH]2)CC1c1cnc2ccccc2c1 (stereo unspecified) | 386 | 
16 | O=C(C1CC1)N1CCc2cc(Br)c(S(=O)(=O)Nc3ccc(Cl)c(C(F)(F)F)c3)cc21 |  | IC50 [27]: 12500 nM
17 | Cc1ccc2cc(C3CC(c4ccc(O)cc4)=NN3C(=O)CCC(=O)O)c(Cl)nc2c1 (stereo unspecified) | > 500 | 
18 | Cc1ccc2cc(C3CC(c4ccc5ccccc5c4)=NN3C(=O)CCC(=O)O)c(Cl)nc2c1 (stereo unspecified) | > 500 | 
19 | CCCSc1nc(N[C@@H]2C[C@H]2c2ccc(F)c(F)c2)c2nnn([C@@H]3C[C@H](OCCO)[C@@H](O)[C@H]3O)c2n1 [TICAGRELOR] |  | IC50 [28]: 1220 nM

The remaining compounds from weak to strong by IC50 [1], led by results:

Row | IC50 [1] [nM] | SMILES | also measured
20 | 168 | Cc1ccc2cc(C3CC(c4ccc(-c5ccccc5)cc4)=NN3C(=O)CCC(=O)O)c(Cl)nc2c1 (stereo unspecified) | Cmax [16]: 1211 ng/mL; F [17]: 16%; Cmax [18]: 864 ng/mL; clearance [19]: 13.5 mL/min/kg; t1/2 [20]: 12 min; t1/2 [21]: 6 min; CL/F [22]: 20.1 mL/min/kg; Tmax [23]: 9 min; AUC [24]: 2356 ng·h/mL; AUC [25]: 1854 ng·h/mL; Tmax [26]: 14 min
21 | 148 | Cc1ccc2cc(C3CC(c4c[nH]c5ccccc45)=NN3C(=O)CCC(=O)O)c(Cl)nc2c1 (stereo unspecified) | 
22 | 125 | Cc1cccc(C2=NN(C(=O)CCC(=O)O)C(c3cc4ccc(C)cc4nc3Cl)C2)c1 (stereo unspecified) | 
23 | 106 | COc1ccc(C2=NN(C(=O)CCC(=O)O)C(c3cc4ccc(C)cc4nc3Cl)C2)cc1 (stereo unspecified) | 
24 | 106 | Cc1ccc2nc(Cl)c(C3CC(c4ccccc4)=NN3C(=O)CCC(=O)O)cc2c1 (stereo unspecified) | 
25 | 84.6 | Cc1ccc(C2=NN(C(=O)CCC(=O)O)C(c3cc4ccc(C)cc4nc3Cl)C2)cc1 (stereo unspecified) | 
26 | 77.5 | COc1cccc(C2=NN(C(=O)CCC(=O)O)C(c3cc4ccc(C)cc4nc3Cl)C2)c1 (stereo unspecified) | 
27 | 69.4 | Cc1ccc2cc(C3CC(c4ccc(C(C)(C)C)cc4)=NN3C(=O)CCC(=O)O)c(Cl)nc2c1 (stereo unspecified) | 
28 | 66.8 | Cc1ccc2nc(Cl)c(C3CC(c4ccc[nH]4)=NN3C(=O)CCC(=O)O)cc2c1 (stereo unspecified) | 
29 | 54.6 | Cc1ccc2cc(C3CC(c4ccccc4)=NN3C(=O)CCC(=O)O)c(Cl)nc2c1 (stereo unspecified) | 
30 | 53.7 | Cc1cccc2cc(C3CC(c4ccc[nH]4)=NN3C(=O)CCC(=O)O)c(Cl)nc12 (stereo unspecified) | 
31 | 52.8 | Cc1ccc2nc(Cl)c(C3CC(c4ccco4)=NN3C(=O)CCC(=O)O)cc2c1 (stereo unspecified) | 
32 | 41.5 | Cc1cccc2cc(C3CC(c4ccccc4)=NN3C(=O)CCC(=O)O)c(Cl)nc12 (stereo unspecified) | 
33 | 39.8 | O=C(O)CCC(=O)N1N=C(c2ccccc2)CC1c1cnc2ccccc2c1 (stereo unspecified) | 
34 | 34.6 | Cc1cccc2cc(C3CC(c4ccco4)=NN3C(=O)CCC(=O)O)c(Cl)nc12 (stereo unspecified) | 
35 | 29.6 | Cc1ccc2cc(C3CC(c4ccc[nH]4)=NN3C(=O)CCC(=O)O)c(Cl)nc2c1 (stereo unspecified) | 
36 | 26.7 | O=C(O)CCC(=O)N1N=C(c2ccco2)CC1c1cnc2ccccc2c1 (stereo unspecified) | 
37 | 26.5 | Cc1ccc2cc(C3CC(c4ccco4)=NN3C(=O)CCC(=O)O)c(Cl)nc2c1 (stereo unspecified) | 
